{"source": "patent US11841367B2", "about": "“TLR agonist-enhanced in vitro assay of cell mediated immune responsiveness” (Cellestis Limited, priority 2011, dated 2023)", "assay_type_in_all_cases": "cell-based, human", "key": {"[1]": {"test_system": "whole blood", "assay": "Background IFN-γ responses to R848 alone in QFT-Nil tubes (whole blood, ELISA)", "details": "for IFNγ concentration of the plasma, background response, Mean: QFT-Nil tube, 1 ml whole blood, 37° C., 16-24 hours"}, "[2]": {"test_system": "whole blood", "assay": "IFN-γ responses of whole blood in QFT-Nil tubes with EBV EBNA1 pepMix plus R848", "details": "for IFNγ response to antigen+R848 minus background to R848 alone, Mean: 16-24 hours"}, "[3]": {"test_system": "whole blood", "assay": "IFN-γ responses of whole blood in QFT-CMV tubes plus R848", "details": "for IFNγ response to antigen+R848 minus background to R848 alone, Mean: 16-24 hours"}, "[4]": {"test_system": "whole blood", "assay": "Clinical study: QFT-TB response with added R848 in TB patients, TB suspects and household contacts", "details": "for effect on QFT-TB response: subjects positive to QFT-TB test alone"}}, "data": [{"smiles": "CCOCc1nc2c(N)nc3ccccc3c2n1CC(C)(C)O", "note": "[R848]", "values": [{"measurement": "background responses to R848 alone", "setting": "[1]; 0.1 μg/ml R848, QFT-Nil tubes", "value": "significant background responses seen in many donors"}, {"measurement": "IFNγ concentration of the plasma, background response, Mean", "setting": "[1]; R848 0.01 μg/ml alone", "value": "−0.009677 1 U/ml"}, {"measurement": "IFNγ concentration of the plasma, background response, Mean", "setting": "[1]; R848 0.02 μg/ml alone", "value": "0.0100 1 U/ml"}, {"measurement": "IFNγ concentration of the plasma, background response, Mean", "setting": "[1]; R848 0.025 μg/ml alone", "value": "0.0330 1 U/ml"}, {"measurement": "IFNγ concentration of the plasma, background response, Mean", "setting": "[1]; R848 0.03 μg/ml alone", "value": "0.0925 1 U/ml"}, {"measurement": "IFNγ concentration of the plasma, background response, Mean", "setting": "[1]; R848 0.04 μg/ml alone", "value": "0.5144 1 U/ml"}, {"measurement": "IFNγ concentration of the plasma, background response, Mean", "setting": "[1]; R848 0.05 μg/ml alone", "value": "1.084 1 U/ml"}, {"measurement": "IFNγ concentration of the plasma, background response, Mean", "setting": "[1]; R848 0.1 μg/ml alone", "value": "21.58 1 U/ml"}, {"measurement": "background responses to R848 alone", "setting": "[1]; below 0.05 μg/ml R848, QFT-Nil tubes", "value": "not significant"}, {"measurement": "boost in EBV responses", "setting": "[2]; 0.05 μg/ml R848 added to EBV EBNA1 peptide pool", "value": "significant boost"}, {"measurement": "IFNγ response to antigen+R848 minus background to R848 alone, Mean", "setting": "[2]; 0.5 μg/ml EBV EBNA 1 pepMix + 0.01 μg/ml R848, whole blood", "value": 2.857, "unit": "IU/ml"}, {"measurement": "IFNγ response to antigen+R848 minus background to R848 alone, Mean", "setting": "[2]; 0.5 μg/ml EBV EBNA 1 pepMix + 0.05 μg/ml R848, whole blood", "value": 18.32, "unit": "IU/ml"}, {"measurement": "IFNγ response to antigen+R848 minus background to R848 alone, Mean", "setting": "[2]; 0.5 μg/ml EBV EBNA 1 pepMix + 0.1 μg/ml R848, whole blood", "value": 29.57, "unit": "IU/ml"}, {"measurement": "responses to the antigen-R848 combined stimuli versus sum of separate responses", "setting": "[2]; EBV and CMV antigens, whole blood", "value": "greater than that seen by adding together the responses to the antigen and R848 alone individually"}, {"measurement": "boost in responses in QFT-CMV tubes", "setting": "[3]; 0.05 μg/ml R848 added", "value": "not as large as that seen for EBV"}, {"measurement": "boost in responses in QFT-CMV tubes", "setting": "[3]; 0.1 μg/ml R848 added", "value": "much greater"}, {"measurement": "IFNγ response to antigen+R848 minus background to R848 alone, Mean", "setting": "[3]; QFT-CMV tube + 0.05 μg/ml R848, whole blood", "value": 15.96, "unit": "IU/ml"}, {"measurement": "IFNγ response to antigen+R848 minus background to R848 alone, Mean", "setting": "[3]; QFT-CMV tube + 0.1 μg/ml R848, whole blood", "value": 79.53, "unit": "IU/ml"}, {"measurement": "effect on QFT-TB response", "setting": "[4]; R848 0.05 μg/ml, P<0.001", "value": "significantly enhanced"}, {"measurement": "effect on QFT-TB response", "setting": "[4]; R848 0.1 μg/ml, P<0.0001", "value": "significantly enhanced"}, {"measurement": "patients negative with the current QFT-TB tube who became positive when R848 was added", "setting": "[4]; both R848 concentrations tested, both patients TB suspects", "value": "Two"}]}]}
